Assay results reported in US20260191793A1, “HBV SPECIFIC EXOSOMES AND USES THEREOF” (priority 2022, published 2026).

Test system: HBV replication in HepG2/2.2.15 cells
Assay: Antiviral efficiency of synthetic gRNA/Cas9 RNPs in HepG2/2.2.15 cells (HBsAg/HBeAg ELISA, HBV mRNA and HBV DNA real-time PCR)
Type: cell-based, Hepatitis B virus (HBV)
Parameters: reduction in HBsAg expression / reduction of HBV mRNA expression: concentration or dose not given beside the values
Conditions: for reduction of HBV mRNA expression: HepG2/2.2.15 cells, real-time PCR, vs gRNAc
Description: The HepG2.2.15 Human Hepatoblastoma cell line (Cat #SCC249, MilliporeSigma, Burlington, MA) is a traditional HBV cellular model that is widely used for studying HBV infection and drug development. HepG2.2.15 cells display constitutive HBV RNA transcription and DNA replication, but a lesser detection of cccDNA by Southern blot and PCR detection. The HepG2/2.2.15 cells were cultured in DMEM (Cat #MT10013CV, Fisher Scientific, Waltham, MA) supplemented with 10% Fetal bovine serum, penicillin, and streptomycin (50 ug/ml each; Fisher Scientific) and maintained at 37° C. and 5% CO2 atmosphere. The Amaxa Cell Line Nucleofector Kit V (Lonza VCA-1003) was used to deliver gRNA/Cas9 into HepG2/2.2.15 cells stably expressing HBV. For each transfection, 160 μM gRNA and 160 μM tracrRNA were first incubated at 37° C. for 30 minutes, followed by adding 80 μM Cas9 protein and incubating at 37° C. for 15 minutes. Approximately 40 μM of the gRNA/Cas9 complex was transfected into HepG2/2.2.15 cells (5×10^5) following the manufacturer's instructions. After 72 hours, the culture supernatants were harvested to measure HBV antigens by ELISA, and the cell pellets were used to determine HBV DNA or mRNA levels by real-time-PCR.
The levels of HBsAg and HBeAg in the supernatants of cell cultures were determined by ELISA (Cat #KA0286 and NBP2-600029, Novus Biologicals, Littleton, CO) according to the manufacturer's protocol. The optical density of antigen levels was measured at 450 nm using a microplate spectrophotometer. The samples were run in triplicate, and the experiments were repeated at least three times.
Total RNA was extracted from the cell pellets by the RNeasy Mini kit (Cat #74104, QIAGEN, Germantown, MD), and 1 μg RNA was converted to cDNA using the Applied Biosystems High-Capacity cDNA Reverse Transcription Kit (Cat #43-688-14, ThermoFisher, Waltham, MA). Quantitative real-time PCR (real-time-qPCR) was performed using iTaq Universal SYBR Green Supermix (Cat #1725124, Bio-Rad, Hercules, CA). The PCR primers were: HBV mRNA forward, 5′-[…]-3′ (SEQ ID NO: 52), reverse, 5′-[…]-3′ (SEQ ID NO: 53); HBV pgRNA forward 5′-[…]-3′ (SEQ ID NO: 54), reverse 5′-[…]-3′ (SEQ ID NO: 55); and GAPDH forward 5′-[…]-3′ (SEQ ID NO: 56), reverse 5′-[…]-3′ (SEQ ID NO: 57). The gene expression levels were determined by the […] method and values were normalized to GAPDH expression as an internal control.
Total and protein-free HBV DNAs were extracted from whole cell lysate using the Hirt DNA method according to a previously published protocol. For HBV cccDNA analysis, the protein-free DNA was treated with 10 units of T5 exonuclease (NEB) at 37° C. for 30 min, followed by 95° C. for 5 min, and diluted 4-fold with nuclease-free water. Next, the cccDNA was cleaned with a DNA clean and concentrator kit (ZYMO Research, Irvine, CA) and used for PCR. HBV total DNA and cccDNA were analyzed by real-time PCR using a TaqMan PCR assay. The primers and probe used to amplify HBV total DNA were: HBV total DNA forward: 5′-[…]-3′ (SEQ ID NO: 58), reverse 5′-[…]-3′ (SEQ ID NO: 59), and internal probe: 5′-FAM-[…]-TAMRA-3′ (SEQ ID NO: 60). The primers and probe used to amplify HBV cccDNA (Genotype D, subtype ayw) were: forward: 5′-[…]-3′ (SEQ ID NO: 61), reverse 5′-[…]-3′ (SEQ ID NO: 62), and internal probe 5′-FAM-[…]-TAMRA-3′ (SEQ ID NO: 63). The PCR reactions were performed in 20 μl volumes and contained 2 μl DNA. The PCR conditions were: 95° C. for 10 min, followed by 45 cycles of 95° C. for 15 s and 64° C. for 30 s. The DNA levels were determined by the […] method and values were normalized to the control group.
Because the hepatoma cell line HepG2/2.2.15 is a traditional HBV cellular model used to test the efficacy and cytotoxicity of anti-HBV drugs, the synthetic gRNA/Cas9 RNPs were tested for their antiviral efficiency in HepG2/2.2.15 cells. […]

Sequence	reduction in HBsAg expression (HepG2/2.2.15 supernatant, 3 days after nucleofection, ELISA, vs scrambled gRNAc) [%]	reduction of HBV mRNA expression
GAAGCGAAGTGCACACGGTCNGG (guide GAAGCGAAGUGCACACGGUCNGG; complexed with Cas9 as ribonucleoprotein, chemistry not given here) [gRNA8, tested as synthetic gRNA/Cas9 RNP]	50	–
GATTGAGACCTTCGTCTGCGNGG (guide GAUUGAGACCUUCGUCUGCGNGG; complexed with Cas9 as ribonucleoprotein, chemistry not given here) [gRNA1, tested as synthetic gRNA/Cas9 RNP]	–	~ 50%
GTCGCAGAAGATCTCAATCTNGG (guide GUCGCAGAAGAUCUCAAUCUNGG; complexed with Cas9 as ribonucleoprotein, chemistry not given here) [gRNA3, tested as synthetic gRNA/Cas9 RNP]	–	~ 50%
